# Results: PMC5931107, “Clinical pharmacodynamic/exposure characterisation of the multikinase inhibitor ilorasertib (ABT-348) in a phase 1 dose-escalation trial” (British Journal of Cancer, 2018)
# Where two headings read alike, the source gives them in different places.
# Assay: Plasma pharmacokinetics, Arm II (oral BID), phase 1 trial
# Type: in vivo, human
# Details: for half-life: read-out: t1/2 (harmonic mean) (converted); for Cmax: read-out: Cmax
# Experimental: Pharmacokinetics of ilorasertib were evaluated in the dose-escalation cohort on blood samples that were collected on cycle 1 days 1 and 15. Parameters determined: Cmax, time to Cmax (Tmax), terminal phase elimination half-life (t1/2), clearance, apparent oral clearance (CL/F), and area under the plasma concentration-time curve from time 0 to time of last measurable concentration (AUCt) and from time 0 to infinity (AUC∞). For Arm I, blood samples were collected prior to dosing and at 0.5, 1, 2, 3, 4, 6, 8, 10 or 12, and 24 h after dosing on cycle 1 days 1 and 15; of note, for institutions not able to collect the 10- or 12-h post-dose sample, the 24-h sample was replaced with 22-h and 28-h post-dose samples. In Arm II, for the first dose, blood samples were collected pre-dose and at 1, 2, 3, and 4 h post-dose on cycle 1 days 1 and 15; for the second dose, samples were collected pre-dose and at 1, 2, 3, 4, 18, and 24 h after second dose on cycle 1 days 1 and 15. In Arm III, blood samples were collected prior to infusion, at 1 h 55 min (just before end of infusion), and at 0.5, 1, 2, 4, 6, 8, 10, and 24 h after end of infusion on cycle 1 days 1 and 15; here also, for institutions not able to collect the 8-h or 10-h after-end-of-infusion samples, the 24-h sample was replaced with 22-h and 28-h post-dose samples. The liquid chromatography (LC)-mass spectrometry (MS)/MS method was developed and validated in the Bioanalysis Department of AbbVie. Fifty microliter of human plasma (K2EDTA as anticoagulant) was fortified with 300 μL of deuterium-stable labelled internal standard and mixed well. A HybridSPE precipitation plate (50 mg/96 wells, Supelco Analytical, Munich, Germany) was used to directly load and elute (under slight vacuum) the fortified samples into a clean collection plate. Samples were dried before reconstitution with 100 μL of 20/80 (v/v) acetonitrile/water, and injected for LC-MS/MS analysis. A Halo C8 (Wilmington, DE, USA; 2.7 μm, 2.1 × 30 mm) was used on an Agilent 1290 Infinity UPLC pump (Agilent Technologies, Santa Clara, CA) to carry out the separation. An isocratic condition with 25/75/0.1 (v/v/v) acetonitrile/water/98% formic acid was used as the mobile phase. The flow rate was set to be 0.6 mL/min. An MPS 3 C ([…] Ruhr, Germany) autosampler was used to introduce samples onto the UPLC system. An API 4000 mass spectrometer (Applied Biosystems, Foster City, CA) was used in the multiple reactions monitoring mode for the detection and quantitation of analyte. Descriptive statistics were used for demographic variables. The numbers and percentages of patients with treatment-emergent AEs (TEAEs) were tabulated using the Medical Dictionary for Regulatory Activities version 16.0 system organ class and preferred term, and further classified according to CTCAE version 4.0 criteria. The safety data set included all patients who received one or more doses of ilorasertib. The pharmacokinetic data set included all patients who received one or more doses of ilorasertib and had one or more pharmacokinetic samples. Values for pharmacokinetic parameters were determined using non-compartmental methods, with data analysed separately for each arm. A repeated measures analysis was performed for Tmax and dose-normalised Cmax, AUCt, and AUC∞. The model included random effects for patient and fixed effects for dose level, day, and the interaction of dose level and day. To assess effects of exposure on pharmacodynamic biomarkers, Cmax was employed as the directly measured marker of exposure for the rapid changes in DBP and PlGF pre-steady-state, while AUC∞ reflected exposure variability at the time of post-multiple-dose skin biopsy. Descriptive statistics were used to summarise ECOG performance status. The efficacy data set included all patients who received one or more doses of ilorasertib.
# [1] = human, plasma, po, 40 mg, Arm II PO BID 40 mg, day 1, N=2, mean (individual)
# [2] = human, plasma, po, 40 mg, Arm II PO BID 40 mg, day 1, N=3
# [3] = human, plasma, po, 40 mg, Arm II PO BID 40 mg, day 15, N=3
# [4] = human, plasma, po, 60 mg, Arm II PO BID 60 mg, day 1, N=3
# [5] = human, plasma, po, 60 mg, Arm II PO BID 60 mg, day 15, N=1
# [6] = human, plasma, po, 60 mg, Arm II PO BID 60 mg, day 15, N=3
# [7] = human, plasma, po, 90 mg, Arm II PO BID 90 mg, day 1, N=2, mean (individual)
# [8] = human, plasma, po, 90 mg, Arm II PO BID 90 mg, day 15, N=3
# [9] = human, plasma, po, 130 mg, Arm II PO BID 130 mg, day 1, N=3
# [10] = human, plasma, po, 130 mg, Arm II PO BID 130 mg, day 1, N=4
# [11] = human, plasma, po, 130 mg, Arm II PO BID 130 mg, day 15, N=1
# [12] = human, plasma, po, 130 mg, Arm II PO BID 130 mg, day 15, N=3
# [13] = human, plasma, po, 190 mg, Arm II PO BID 190 mg, day 15, N=2, mean (individual)
# [14] = human, plasma, po, 190 mg, Arm II PO BID 190 mg, day 15, N=5
# [15] = human, plasma, po, 230 mg, Arm II PO BID 230 mg, day 1, N=2, mean (individual)
# [16] = human, plasma, po, 230 mg, Arm II PO BID 230 mg, day 1, N=3
# [17] = human, plasma, po, 230 mg, Arm II PO BID 230 mg, day 15, N=1
# [18] = human, plasma, po, 230 mg, Arm II PO BID 230 mg, day 15, N=4
# [19] = human, plasma, po, 340 mg, Arm II PO BID 340 mg, day 1, N=1
# [20] = human, plasma, po, 340 mg, Arm II PO BID 340 mg, day 1, N=3
# [21] = human, plasma, po, 340 mg, Arm II PO BID 340 mg, day 15, N=1
smiles,measurement,setting,value
"Nc1ncc(-c2cnn(CCO)c2)c2scc(-c3ccc(NC(=O)Nc4cccc(F)c4)cc3)c12 [ilorasertib, Ilorasertib]",Tmax,"Arm II, oral administration in two divided doses, versus Arm I",delayed by several hours
same,AUC(0-inf),[1],3990 ng·h/mL
same,half-life,[1],11 h
same,AUC(0-t),[2],3720 ± 1640 ng·h/mL
same,Cmax,[2],250 ± 120 ng/mL
same,Tmax,"human, plasma, po, 40 mg, Arm II PO BID 40 mg, day 1, N=3, read-out: Tmax",7.3 ± 3.8 h
same,AUC(0-t),[3],3750 ± 2050 ng·h/mL
same,Cmax,[3],190 ± 110 ng/mL
same,Tmax,"human, plasma, po, 40 mg, Arm II PO BID 40 mg, day 15, N=3, read-out: Tmax",10 h
same,AUC(0-t),[4],5450 ± 1460 ng·h/mL
same,Cmax,[4],380 ± 140 ng/mL
same,Tmax,"human, plasma, po, 60 mg, Arm II PO BID 60 mg, day 1, N=3, read-out: Tmax",5.7 ± 3.8 h
same,AUC(0-inf),[5],5430 ng·h/mL
same,half-life,[5],11.8 h
same,AUC(0-t),[6],2920 ± 710 ng·h/mL
same,Cmax,[6],230 ± 60 ng/mL
same,Tmax,"human, plasma, po, 60 mg, Arm II PO BID 60 mg, day 15, N=3, read-out: Tmax",4.8 ± 2.8 h
same,AUC(0-inf),[7],4030 ng·h/mL
same,half-life,[7],10.1 h
same,AUC(0-t),"human, plasma, po, 90 mg, Arm II PO BID 90 mg, day 1, N=3",3920 ± 1530 ng·h/mL
same,Tmax,"human, plasma, po, 90 mg, Arm II PO BID 90 mg, day 1, N=3, read-out: Tmax",9 ± 1 h
same,AUC(0-inf),"human, plasma, po, 90 mg, Arm II PO BID 90 mg, day 15, N=2, mean (individual)",5330 ng·h/mL
same,AUC(0-t),[8],4060 ± 1510 ng·h/mL
same,Cmax,[8],320 ± 100 ng/mL
same,Tmax,"human, plasma, po, 90 mg, Arm II PO BID 90 mg, day 15, N=3, read-out: Tmax",7.6 ± 5.4 h
same,AUC(0-inf),[9],6530 ± 4460 ng·h/mL
same,half-life,[9],18.6 ± 17.6 h
same,AUC(0-t),[10],5070 ± 3180 ng·h/mL
same,Cmax,[10],600 ± 390 ng/mL
same,Tmax,"human, plasma, po, 130 mg, Arm II PO BID 130 mg, day 1, N=4, read-out: Tmax",7.5 ± 1.7 h
same,AUC(0-inf),[11],3960 ng·h/mL
same,half-life,[11],7.5 h
same,AUC(0-t),[12],2400 ± 1290 ng·h/mL
same,Cmax,[12],260 ± 280 ng/mL
same,Tmax,"human, plasma, po, 130 mg, Arm II PO BID 130 mg, day 15, N=3, read-out: Tmax",11 ± 11.5 h
same,AUC(0-inf),"human, plasma, po, 190 mg, Arm II PO BID 190 mg, day 1, N=4",17800 ± 11300 ng·h/mL
same,Cmax,"human, plasma, po, 190 mg, Arm II PO BID 190 mg, day 1, N=7",540 ± 280 ng/mL
same,Tmax,"human, plasma, po, 190 mg, Arm II PO BID 190 mg, day 1, N=7, read-out: Tmax",10.2 ± 6.7 h
same,AUC(0-inf),[13],10700 ng·h/mL
same,half-life,[13],8.4 h
same,AUC(0-t),[14],6690 ± 5220 ng·h/mL
same,Cmax,[14],630 ± 380 ng/mL
same,Tmax,"human, plasma, po, 190 mg, Arm II PO BID 190 mg, day 15, N=5, read-out: Tmax",13.2 ± 10.2 h
same,AUC(0-inf),[15],9140 ng·h/mL
same,half-life,[15],9 h
same,AUC(0-t),[16],10100 ± 3620 ng·h/mL
same,Cmax,[16],700 ± 230 ng/mL
same,Tmax,"human, plasma, po, 230 mg, Arm II PO BID 230 mg, day 1, N=3, read-out: Tmax",8.7 ± 1.2 h
same,AUC(0-inf),[17],13000 ng·h/mL
same,half-life,[17],8 h
same,AUC(0-t),[18],11200 ± 4340 ng·h/mL
same,Cmax,[18],790 ± 460 ng/mL
same,Tmax,"human, plasma, po, 230 mg, Arm II PO BID 230 mg, day 15, N=4, read-out: Tmax",9.5 ± 0.6 h
same,AUC(0-inf),[19],98800 ng·h/mL
same,half-life,[19],39.6 h
same,AUC(0-t),[20],39300 ± 14800 ng·h/mL
same,Cmax,[20],2040 ± 870 ng/mL
same,Tmax,"human, plasma, po, 340 mg, Arm II PO BID 340 mg, day 1, N=3, read-out: Tmax",15 ± 8 h
same,AUC(0-t),[21],15700 ng·h/mL
same,Cmax,[21],770 ng/mL
same,Tmax,"human, plasma, po, 340 mg, Arm II PO BID 340 mg, day 15, N=1, read-out: Tmax",10 h
same,Tmax,"human, plasma, po, Arm II PO BID all doses, day 1, N=26, read-out: Tmax",9.2 ± 5 h
same,Tmax,"human, plasma, po, Arm II PO BID all doses, day 15, N=22, read-out: Tmax",9.7 ± 6.6 h
